Results as given in US20120270778A1, “Compositions and Methods for Non-Invasive Treatment of Chronic Complications of Diabetes” (Aegis Therapeutics LLC, priority 2009, published 2012).

Assays:
[1] = tested on: diabetes-induced hyperfiltration; settings: in vivo; cited from earlier work
[2] = in vivo, inhaled or intranasal; cited from earlier work
[3] = tested on: rat model of type 1 diabetes; settings: cited from earlier work
islet cell = settings: cited from earlier work
[4] = tested on: patients with early-stage type 1 diabetic neuropathy; settings: treatment for 6 months; cited from earlier work
[5] = Serum insulin and C-peptide levels after nasal administration of combined formulations to rats; format: in vivo
Method: Test System—Sprague Dawley rats, females; 325 grams are used throughout this study. Rats are anesthetized by isoflurane/O2 mixture. To a first and second group of three rats each is administered vehicle containing C-peptide concentration of 1 and 10 mg/mL as described in Example 1 to which is added 0.1% benzallconium chloride as a preservative. To a third and fourth group of 3 rats each is administered vehicle containing C-peptide concentration of 1 and 10 mg/mL as described above to which is added 45 mg/mL methyl-beta-cyclodextrin (Sigma-Aldrich). […]
Analysis Procedure—The serum was frozen at approximately −70° C. in pre-labeled, plastic tubes, and tightly capped, and stored at approximately −70° C. until ready for testing. […]
Solutions prepared as described in Example 3 were administered nasally to rats and tested as described in Example 2 except with the addition that serum human insulin determinations were made using the Human Insulin ELISA Kit™ from Diagnostic Systems Laboratories, Inc, Webster, Tex. The relative molar ratios of insulin to C-peptide in serum for each formulation was calculated by taking the ratio of the insulin concentration to the C-peptide concentration at a fixed time point. In Table 2 below, ratios of the concentrations of insulin and C-peptide for concentrations measured at two time points, namely 20 min. and 40 min. post nasal instillation. […]

type 1 diabetes = settings: human; cited from earlier work
normal and diabetic mice = settings: repressed by insulin; cited from earlier work
insulin = insulin (Homo sapiens, UniProt P01308); settings: cited from earlier work
Sequence of insulin (P01308 25-54 limits assumed, species assumed): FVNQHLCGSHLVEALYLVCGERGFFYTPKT
Sequence of insulin (P01308 90-110 limits assumed, species assumed): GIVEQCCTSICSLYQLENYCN

| Substance | effect on diabetes-induced hyperfiltration, renal hypertrophy and albuminuria [1] | systemic bioavailability by intranasal route [2] [%] | effect on neuropathy [3] | effect on islet cell apoptosis (islet cell) | effect on sensory nerve function [4] | rate of absorption relative to insulin [5] | effect on diabetes-induced renal and nerve dysfunction (type 1 diabetes) | antithrombotic effects (normal and diabetic mice) | effect on insulin aggregation (insulin) |
| --- | --- | --- | --- | --- | --- | --- | --- | --- | --- |
| EVARQ | reduce diabetes-induced hyperfiltration, as well as renal hypertrophy and albuminuria | – | – | – | – | – | – | – | – |
| salmon calcitonin | – | 3 | – | – | – | – | – | – | – |
| Proinsulin C-Peptide (55-89), human | reduce diabetes-induced hyperfiltration, as well as renal hypertrophy and albuminuria | – | improves neuropathy | decreases islet cell apoptosis | improved sensory nerve function | slightly, but not significantly, more rapidly than insulin | amelioration of diabetes-induced renal and nerve dysfunction | exerts antithrombotic effects | elicit disaggregation of insulin |
